In patent US12280038B2, “L-pag derivatives for treatment of sleep disordered breathing (SDB)” (priority 2016, dated 2025):
Read-outs that look alike come from different tables or passages of the source.

Assays:
[1] = molecular target: T1, cystathionine-γ-lyase (CSE) (Mus musculus, UniProt Q8VCN5); test: In vitro assay of H2S production in mouse liver homogenates (CSE); assay type: biochemical
T1 construct: H2S production in an in vitro assay using mouse liver homogenates; from tissue; host or cells: mouse liver homogenate
T1 sequence (Q8VCN5 whole entry): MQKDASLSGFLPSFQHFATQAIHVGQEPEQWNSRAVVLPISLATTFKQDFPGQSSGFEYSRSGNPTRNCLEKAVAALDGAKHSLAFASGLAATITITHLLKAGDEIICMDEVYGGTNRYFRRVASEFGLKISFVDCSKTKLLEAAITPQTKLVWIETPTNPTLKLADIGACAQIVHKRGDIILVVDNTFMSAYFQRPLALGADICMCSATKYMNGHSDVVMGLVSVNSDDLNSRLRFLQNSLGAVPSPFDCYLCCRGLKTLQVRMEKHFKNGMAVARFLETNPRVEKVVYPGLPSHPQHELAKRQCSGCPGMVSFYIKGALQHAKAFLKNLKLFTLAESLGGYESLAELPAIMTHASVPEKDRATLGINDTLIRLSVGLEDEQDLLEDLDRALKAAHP
Method: (§1) FIGS. 10A-10B Effect of CSE inhibitor on H2S production. FIG. 10A depicts a dose-response of L-propargylglycine (L-PAG) on H2S production in an in vitro assay using mouse liver homogenates. FIG. 10B depicts the effect of L-PAG (30 μM) on H2S generation by CSE and CBS in mouse liver homogenates. Data are presented as mean±SEM from 4 independent experiments. **P<0.01; n.s., not significant.
(§2) The effect of pharmacological CSE blockade on restoration of stable breathing in HO-2 null mice was examined. L-propargylglycine (L-PAG) is an inhibitor of CSE. […] The inhibitory effects of L-PAG were selective to CSE because H2S synthesis by cystathionine-β-synthase was unaffected (FIG. 10 B).

[2] = tested on: carotid body; test: Ex vivo carotid body sensory nerve response to hypoxia; conditions: 30 mg/kg, HO-2 null mice
Method: Sensory nerve activity was recorded from ex vivo carotid bodies harvested from anesthetized mice. Briefly, the carotid sinus nerve was treated with collagenase, and several nerve bundles were isolated. Action potentials from one of the nerve bundles were recorded using a suction electrode (˜20-μm-diameter tip). […] Action potentials of similar height, duration, and shape (“single” unit) were selected using Spike histogram software (LabChart 7 Pro) for analysis of the sensory nerve activity. To obtain a stable baseline sensory nerve activity, carotid bodies were first superfused for 1 hour with normoxia-equilibrated medium. Subsequently, baseline sensory nerve activity under normoxia was recorded for 5 min. Sensory nerve responses to hypoxia were monitored for 3 min. The PO2 in the medium was determined by a blood gas analyzer (ABL 5). Hypoxic response was measured as the difference between the sensory nerve activity under baseline and during hypoxia (Δimp/s).

[3] = tested on: HO-2 null mice; conditions: any of the doses tested
Method: HO-2 null mice were treated with increasing doses of L-PAG via the intraperitoneal route, and breathing was monitored continuously for 6 hours. […] The anti-apneic effects of L-PAG were further analyzed at 30 mg/kg.

[4] = tested on: HO-2 null mice; test: Breathing (apnea, hypoapnea) monitored by whole-body plethysmography in unsedated HO-2 null mice; assay type: in vivo; conditions: for ED50: Mus musculus
Method: Experiments were approved by the Institutional Animal Care and Use Committee of the University of Chicago and were performed on age-matched C57/BL6 wild type and HO-2^−/− mice. At the end of the experiment, mice were euthanized by intra-cardiac injection (0.1 mL) of euthanasia solution (Beuthanasia-D Special, Schering-Plough).
Breathing was continuously monitored under room air from 10:00 AM to 4:00 PM by whole-body plethysmography (emka Technologies, Falls Church, VA) while ambient temperatures were maintained at 25±1° C. Breathing signals were collected and stored with a data acquisition system(emka Technologies, Falls Church, VA; or PowerLab 8/35, AD Instruments, Australia), and scored off-line with commercial software (RemLogic™, Natus). Apneas were scored when there was a complete pause of respiration for the duration of 3 or more breaths. Hypopneas were scored when there was a 30% reduction in tidal volume or signal amplitude, often with an abrupt return to hyperventilation breaths at the end of the event.

[5] = in vivo
Method: Comparisons of L-PAG plasma levels with (a) dose-response parameters for L-PAG pharmacologic activity and (b) the kinetics of reversal of this pharmacologic activity, support the conclusion that a threshold plasma drug level of approximately 12 to 15 μg/ml is necessary to sustain anti-apnea action. This threshold plasma drug level is consistent with both (a) the minimal anti-apnea activity of the 10 mg/kg dose of L-PAG and (b) the kinetics of the reversal of anti-apnea activity with time seen at L-PAG doses of 30 mg/kg or higher.

[6] = molecular target: T2, cystathionine-β-synthase (Mus musculus, UniProt Q91WT9); test: In vitro assay of H2S production in mouse liver homogenates (CBS); assay type: biochemical; conditions: L-PAG 30 μM
T2 construct: H2S generation by CSE and CBS in mouse liver homogenates; from tissue; host or cells: mouse liver homogenate
T2 sequence (Q91WT9 1-561): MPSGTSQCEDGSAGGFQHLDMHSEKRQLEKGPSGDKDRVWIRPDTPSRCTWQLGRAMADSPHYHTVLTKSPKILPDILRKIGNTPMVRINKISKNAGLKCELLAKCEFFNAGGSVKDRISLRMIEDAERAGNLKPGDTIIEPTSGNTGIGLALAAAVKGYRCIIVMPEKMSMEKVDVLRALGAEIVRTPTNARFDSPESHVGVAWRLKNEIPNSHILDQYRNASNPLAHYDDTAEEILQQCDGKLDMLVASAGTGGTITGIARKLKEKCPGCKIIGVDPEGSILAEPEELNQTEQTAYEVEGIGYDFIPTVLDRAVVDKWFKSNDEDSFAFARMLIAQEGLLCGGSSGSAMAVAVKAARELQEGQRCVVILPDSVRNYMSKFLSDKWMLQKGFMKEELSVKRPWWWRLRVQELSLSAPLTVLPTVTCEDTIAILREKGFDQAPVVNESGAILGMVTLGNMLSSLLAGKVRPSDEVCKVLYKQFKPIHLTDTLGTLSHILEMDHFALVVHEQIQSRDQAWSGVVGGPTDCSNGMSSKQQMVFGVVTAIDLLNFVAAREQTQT
Method: as §1, §2

In the case of `C#CC[C@H](N)C(=O)O` [L-PAG, L-propargylglycine], the “CSE-derived H2S” value [1] is reported as “inhibited”, the “carotid body sensitivity to hypoxia” value [2] is reported as “markedly reduced” and the mortality [3] is reported as “no mortality”. For the same compound, the “anti-apnea activity at 10 mg/kg dose” value ([4]; 10 mg/kg) was “minimal”, the hypoapnea index ([4]; 30 mg/kg intraperitoneal) was “reduced by L-PAG and this effect persisted even after 24 hours” and the “occurrence of both obstructive and central apnea” value ([4]; 30 mg/kg intraperitoneal) was “markedly reduced”. For the same compound, the “time after administration at which anti-apneic effects were seen” value ([4]; 30 mg/kg intraperitoneal) was roughly 2 h, the “time after which apnea returned to pre-injection values” ([4]; 30 mg/kg intraperitoneal) was 24 h and the ED50 ([4]; ip, intraperitoneal route, breathing monitored 6 hours, HO-2 null mice, read-out: ED50 for reducing number of apneas and restoring stable breathing) was 30 mg/kg. The ED50 ([4]; systemic administration, HO2-KO mice, FIG. 11, read-out: ED50 for inhibiting SDB (comparative dose-response)) was roughly 30 mg/kg, the “reduction of number of apneas and hypoapnea index after oral administration” value ([4]; oral 30 mg/kg, compared with intraperitoneal) was “equally effective” and the bioavailability [5] was 100%. The “plasma clearance profiles, oral versus i.p.” value [5] was “essentially identical”, the “threshold plasma drug level necessary to sustain anti-apnea action” value ([5]; mouse) was 12 to 15 µg/mL and the “H2S synthesis by cystathionine-β-synthase” value [6] was “unaffected”.
